Values joined by “and” are separate entries in the source; they are usually repeats but may differ in a detail not shown here. Identical values can stand only once.
Tested on: 521955-158-R2-J5-PDC complex spheroid viability
Test: Anticancer human tumor 521955-158-R2-J5-PDC patient-derived pancreatic carcinoma cell line growth inhibition
Details: for viability, T/C: stronger effect = lower value
Procedure, shortened: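 Multicellular complex spheroids of tumor cells with human endothelial cells (HUVEC) and mesenchymal stem cells; the LSD1 inhibitor iadademstat was combined with standard-of-care or investigational agents. Top concentration at or near clinical Cmax, half-log dilutions; final DMSO ≤0.25%.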

[1] = curve of first compound, second compound 0.1 µM
[2] = curve of first compound, second compound 0.316 µM
[3] = curve of first compound, second compound 1 µM
[4] = curve of first compound, second compound 3.16 µM
[5] = curve of first compound, second compound 10 µM
[6] = second compound 0.1 µM, first compound 0.0316 µM
[7] = second compound 0.1 µM, first compound 0.1 µM
[8] = second compound 0.1 µM, first compound 0.316 µM
[9] = second compound 0.1 µM, first compound 1 µM
[10] = second compound 0.316 µM, first compound 0.0316 µM
[11] = second compound 0.316 µM, first compound 0.1 µM
[12] = second compound 0.316 µM, first compound 0.316 µM
[13] = second compound 0.316 µM, first compound 1 µM
[14] = second compound 1 µM, first compound 0.0316 µM
[15] = second compound 1 µM, first compound 0.1 µM
[16] = second compound 1 µM, first compound 0.316 µM
[17] = second compound 1 µM, first compound 1 µM
[18] = second compound 3.16 µM, first compound 0.0316 µM
[19] = second compound 3.16 µM, first compound 0.1 µM
[20] = second compound 3.16 µM, first compound 0.316 µM
[21] = second compound 3.16 µM, first compound 1 µM
[22] = second compound 10 µM, first compound 0.0316 µM
[23] = second compound 10 µM, first compound 0.1 µM
[24] = second compound 10 µM, first compound 0.316 µM
[25] = second compound 10 µM, first compound 1 µM
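Also: spheroids exposed to agents for seven days.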
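For viability, T/C in this document: percent of DMSO vehicle control luminescence viability.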

**Q.** What does the source list for `CCN(c1cc(-c2ccc(CN3CCOCC3)cc2)cc(C(=O)NCc2c(C)cc(C)[nH]c2=O)c1C)C1CCOCC1` + NC1CCC(NC2CC2c2ccccc2)CC1?
**A.** IC50 [1]: > 3000 nM; IC50 [2]: 2560 nM; IC50 [3]: 1880 nM; IC50 [4]: 1730 nM; IC50 [5]: 1490 nM; viability, T/C (second compound 0.1 µM, first compound 0.00949 µM): 105%; viability, T/C (second compound 0.1 µM, first compound 0.03 µM): 105%; viability, T/C (second compound 0.1 µM, first compound 0.0949 µM): 94.4%; viability, T/C (second compound 0.1 µM, first compound 0.3 µM): 83.3%; viability, T/C (second compound 0.1 µM, first compound 0.949 µM): 64.6%; viability, T/C (second compound 0.1 µM, first compound 3 µM): 51%; viability, T/C (second compound 0.316 µM, first compound 0.00949 µM): 103%; viability, T/C (second compound 0.316 µM, first compound 0.03 µM): 99.1%; viability, T/C (second compound 0.316 µM, first compound 0.0949 µM): 95.8%; viability, T/C (second compound 0.316 µM, first compound 0.3 µM): 78.2%; viability, T/C (second compound 0.316 µM, first compound 0.949 µM): 71%; viability, T/C (second compound 0.316 µM, first compound 3 µM): 46.3%; viability, T/C (second compound 1 µM, first compound 0.00949 µM): 103%; viability, T/C (second compound 1 µM, first compound 0.03 µM): 99.8%; viability, T/C (second compound 1 µM, first compound 0.0949 µM): 93.7%; viability, T/C (second compound 1 µM, first compound 0.3 µM): 79%; viability, T/C (second compound 1 µM, first compound 0.949 µM): 66%; viability, T/C (second compound 1 µM, first compound 3 µM): 39.5%; viability, T/C (second compound 3.16 µM, first compound 0.00949 µM): 96.8%; viability, T/C (second compound 3.16 µM, first compound 0.03 µM): 103%; viability, T/C (second compound 3.16 µM, first compound 0.0949 µM): 96.3%; viability, T/C (second compound 3.16 µM, first compound 0.3 µM): 82.8%; viability, T/C (second compound 3.16 µM, first compound 0.949 µM): 66.6%; viability, T/C (second compound 3.16 µM, first compound 3 µM): 35.7%; viability, T/C (second compound 10 µM, first compound 0.00949 µM): 103%; viability, T/C (second compound 10 µM, first compound 0.03 µM): 101%; viability, T/C (second compound 10 µM, first compound 0.0949 µM): 94.6%; viability, T/C (second compound 10 µM, first compound 0.3 µM): 83.8%; viability, T/C (second compound 10 µM, first compound 0.949 µM): 59.6%; viability, T/C (second compound 10 µM, first compound 3 µM): 34.8%

**Q.** `CC1(C)CCC(CN2CCN(c3ccc(C(=O)NS(=O)(=O)c4ccc(NCC5CCOCC5)c([N+](=O)[O-])c4)c(Oc4cnc5[nH]ccc5c4)c3)CC2)=C(c2ccc(Cl)cc2)C1` + NC1CCC(NC2CC2c2ccccc2)CC1 was tested. Which IC50 [1] did it give?
**A.** 4200 nM

**Q.** What about the IC50 [2] of the same compound?
**A.** 3810 nM

**Q.** And the IC50 [3]?
**A.** 3770 nM

**Q.** What about the IC50 [4] of the same compound?
**A.** 3110 nM

**Q.** What about the IC50 [5] of the same compound?
**A.** 3790 nM

**Q.** What about the viability, T/C [6] of the same compound?
**A.** 109%

**Q.** And the viability, T/C [7]?
**A.** 116%

**Q.** What about the viability, T/C [8] of the same compound?
**A.** 112%

**Q.** What about the viability, T/C [9] of the same compound?
**A.** 109%

**Q.** What about the viability, T/C (second compound 0.1 µM, first compound 3.16 µM) of the same compound?
**A.** 66.1%

**Q.** And the viability, T/C (second compound 0.1 µM, first compound 10 µM)?
**A.** 0.51%

**Q.** What about the viability, T/C [10] of the same compound?
**A.** 119%

**Q.** And the viability, T/C [11]?
**A.** 113%

**Q.** What about the viability, T/C [12] of the same compound?
**A.** 116%

**Q.** And the viability, T/C [13]?
**A.** 111%

**Q.** And the viability, T/C (second compound 0.316 µM, first compound 3.16 µM)?
**A.** 59.5%

**Q.** And the viability, T/C (second compound 0.316 µM, first compound 10 µM)?
**A.** 0.64%

**Q.** And the viability, T/C [14]?
**A.** 108%

**Q.** And the viability, T/C [15]?
**A.** 105%

**Q.** What about the viability, T/C [16] of the same compound?
**A.** 108%

**Q.** And the viability, T/C [17]?
**A.** 103%

**Q.** What about the viability, T/C (second compound 1 µM, first compound 3.16 µM) of the same compound?
**A.** 58.8%

**Q.** What about the viability, T/C (second compound 1 µM, first compound 10 µM) of the same compound?
**A.** 0.9%

**Q.** And the viability, T/C [18]?
**A.** 116%

**Q.** What about the viability, T/C [19] of the same compound?
**A.** 124%

**Q.** What about the viability, T/C [20] of the same compound?
**A.** 111%

**Q.** What about the viability, T/C [21] of the same compound?
**A.** 109%

**Q.** What about the viability, T/C (second compound 3.16 µM, first compound 3.16 µM) of the same compound?
**A.** 49%

**Q.** What about the viability, T/C (second compound 3.16 µM, first compound 10 µM) of the same compound?
**A.** 0.91%

**Q.** What about the viability, T/C [22] of the same compound?
**A.** 119%

**Q.** What about the viability, T/C [23] of the same compound?
**A.** 117%

**Q.** What about the viability, T/C [24] of the same compound?
**A.** 117%

**Q.** And the viability, T/C [25]?
**A.** 115%

**Q.** And the viability, T/C (second compound 10 µM, first compound 3.16 µM)?
**A.** 59.1%

**Q.** What about the viability, T/C (second compound 10 µM, first compound 10 µM) of the same compound?
**A.** 0.85%

**Q.** Which viability, T/C (compound 0.00949 µM) does the source give for `O=C(C=Cc1cccc(S(=O)(=O)Nc2ccccc2)c1)NO` here?
**A.** 114%

**Q.** What about the viability, T/C (compound 0.03 µM) of the same compound?
**A.** 108% and 119%

**Q.** And the viability, T/C (compound 0.0949 µM)?
**A.** 91.1% and 104%

**Q.** What about the viability, T/C (compound 0.3 µM) of the same compound?
**A.** 48.3% and 70.4%

**Q.** And the viability, T/C (compound 0.949 µM)?
**A.** 10.4% and 38.4%

**Q.** What about the IC50 (curve of compound) of the same compound?
**A.** > 3000 nM and 619 nM

**Q.** Which results are given for `O=C(C=Cn1cnc(-c2cc(C(F)(F)F)cc(C(F)(F)F)c2)n1)NNc1cnccn1` + NC1CCC(NC2CC2c2ccccc2)CC1?
**A.** IC50 [1]: < 3.16 nM; IC50 [2]: < 3.16 nM; IC50 [3]: < 3.16 nM; IC50 [4]: < 3.16 nM; IC50 [5]: < 3.16 nM; viability, T/C (second compound 0.1 µM, first compound 0.00316 µM): 40.4%; viability, T/C (second compound 0.1 µM, first compound 0.01 µM): 42%; viability, T/C [6]: 45.4%; viability, T/C [7]: 35.8%; viability, T/C [8]: 19%; viability, T/C [9]: 14.7%; viability, T/C (second compound 0.316 µM, first compound 0.00316 µM): 40.8%; viability, T/C (second compound 0.316 µM, first compound 0.01 µM): 33.4%; viability, T/C [10]: 52.3%; viability, T/C [11]: 40.6%; viability, T/C [12]: 21.5%; viability, T/C [13]: 16.1%; viability, T/C (second compound 1 µM, first compound 0.00316 µM): 37.7%; viability, T/C (second compound 1 µM, first compound 0.01 µM): 31.5%; viability, T/C [14]: 52.4%; viability, T/C [15]: 38.4%; viability, T/C [16]: 26.8%; viability, T/C [17]: 17.2%; viability, T/C (second compound 3.16 µM, first compound 0.00316 µM): 40.2%; viability, T/C (second compound 3.16 µM, first compound 0.01 µM): 41.1%; viability, T/C [18]: 36.1%; viability, T/C [19]: 41.5%; viability, T/C [20]: 21.6%; viability, T/C [21]: 17.1%; viability, T/C (second compound 10 µM, first compound 0.00316 µM): 32.2%; viability, T/C (second compound 10 µM, first compound 0.01 µM): 29.3%; viability, T/C [22]: 35.3%; viability, T/C [23]: 29%; viability, T/C [24]: 24.1%; viability, T/C [25]: 13.3%

Source: PubChem BioAssay AID1918937 (Molecular Pharmacology Branch, DTP, NCI, 2023)
